# How the values were obtained:
# [1] = target: T1, Tyrosine-protein phosphatase non-receptor type 11 (Homo sapiens, UniProt Q06124); assay: Inhibition of full length wild type recombinant human IRS-1 peptide activated SHP2 (1 to 525 residues) using DIPMUP as substrate preincubated for 30 mins followed by substrate addition and measured after 30 mins by fluorescence based analysis
# T1 sequence (Q06124 whole entry): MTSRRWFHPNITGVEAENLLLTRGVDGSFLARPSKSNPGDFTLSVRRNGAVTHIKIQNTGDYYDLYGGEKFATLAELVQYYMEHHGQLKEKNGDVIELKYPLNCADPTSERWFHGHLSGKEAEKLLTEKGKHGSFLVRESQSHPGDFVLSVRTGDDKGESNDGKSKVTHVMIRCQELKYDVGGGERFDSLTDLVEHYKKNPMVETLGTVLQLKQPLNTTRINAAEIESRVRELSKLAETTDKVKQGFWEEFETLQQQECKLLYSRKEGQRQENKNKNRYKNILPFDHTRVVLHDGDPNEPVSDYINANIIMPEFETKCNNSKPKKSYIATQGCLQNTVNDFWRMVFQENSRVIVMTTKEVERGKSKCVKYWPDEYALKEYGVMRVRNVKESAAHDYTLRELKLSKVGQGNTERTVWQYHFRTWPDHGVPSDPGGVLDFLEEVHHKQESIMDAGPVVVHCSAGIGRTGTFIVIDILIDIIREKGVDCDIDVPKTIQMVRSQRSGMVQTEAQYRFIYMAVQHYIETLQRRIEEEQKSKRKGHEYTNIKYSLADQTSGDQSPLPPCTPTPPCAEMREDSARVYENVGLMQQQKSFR
# MDA-MB-468 = assay: Antiproliferative activity against human MDA-MB-468 cells assessed as inhibition of cell growth measured after 72 hrs by CCK8 method; assay type: functional, cell-based; conditions: MDA-MB-468, 72 h
# [2] = target: T1, Tyrosine-protein phosphatase non-receptor type 11; assay: Inhibition of full length wild type recombinant human SHP2 (1 to 525 residues) using DIPMUP as substrate preincubated for 30 mins followed by substrate addition and measured after 30 mins by fluorescence based analysis
# [3] = target: Tyrosine-protein phosphatase non-receptor type 6 (Homo sapiens, UniProt P29350); assay: Inhibition of full length recombinant human SHP1 (1 to 570 residues) using DIPMUP as substrate preincubated for 30 mins followed by substrate addition and measured after 30 mins by fluorescence based analysis
# A549 = assay: Antiproliferative activity against human A549 cells assessed as inhibition of cell growth measured after 72 hrs by CCK8 method; assay type: functional, cell-based; conditions: A549, 72 h
# [4] = target: T1, Tyrosine-protein phosphatase non-receptor type 11; assay: Inhibition of recombinant human SHP2 PTPase activity (219 to 525 residues) using DIPMUP as substrate preincubated for 30 mins followed by substrate addition and measured after 30 mins by fluorescence based analysis
# BEAS-2B = assay: Antiproliferative against human BEAS-2B cells assessed as inhibition of cell growth measured after 72 hrs by CCK8 method; assay type: toxicity, cell-based
# NCI-H358 = assay: Antiproliferative activity against human NCI-H358 cells assessed as inhibition of cell growth measured after 72 hrs by CCK8 method; assay type: functional, cell-based; conditions: NCI-H358, 72 h
# MV4-11 [5] = assay: Antiproliferative activity against human MV4-11 cells assessed as inhibition of cell growth measured after 72 hrs by CCK8 method; assay type: functional, cell-based; conditions: MV4-11, 72 h
# [6] = Inhibition of full length recombinant human SHP2 E76A mutant (1 to 525 residues) using DIPMUP as substrate preincubated for 30 mins followed by substrate addition and measured after 30 mins by fluorescence based analysis
# MV4-11 [7] = assay: Induction of apoptosis in human MV4-11 cells assessed as viable cells at 2.5 uM measured after 4 hrs by Annexin V-FITC/7-AAD staining based flow cytometric analysis (reference value: 89.1%); assay type: functional
# MV4-11 [8] = assay: Induction of apoptosis in human MV4-11 cells assessed as late apoptotic cells at 1.25 uM measured after 4 hrs by Annexin V-FITC/7-AAD staining based flow cytometric analysis (reference value: 4.03%); assay type: functional
# MV4-11 [9] = assay: Induction of apoptosis in human MV4-11 cells assessed as viable cells at 5 uM measured after 1 hrs by Annexin V-FITC/7-AAD staining based flow cytometric analysis (reference value: 90.1%); assay type: functional
# MV4-11 [10] = assay: Induction of apoptosis in human MV4-11 cells assessed as early apoptotic cells at 1.25 uM measured after 4 hrs by Annexin V-FITC/7-AAD staining based flow cytometric analysis (reference value: 5.97%); assay type: functional
# MV4-11 [11] = assay: Induction of apoptosis in human MV4-11 cells assessed as late apoptotic cells at 5 uM measured after 1 hrs by Annexin V-FITC/7-AAD staining based flow cytometric analysis (reference value: 4.21%); assay type: functional
# MV4-11 [12] = assay: Induction of apoptosis in human MV4-11 cells assessed as viable cells at 1.25 uM measured after 4 hrs by Annexin V-FITC/7-AAD staining based flow cytometric analysis (reference value: 89.1%); assay type: functional
# MV4-11 [13] = assay: Induction of apoptosis in human MV4-11 cells assessed as necrotic cells at 1.25 uM measured after 4 hrs by Annexin V-FITC/7-AAD staining based flow cytometric analysis (reference value: 0.86%); assay type: functional
# MV4-11 [14] = assay: Induction of apoptosis in human MV4-11 cells assessed as early apoptotic cells at 2.5 uM measured after 4 hrs by Annexin V-FITC/7-AAD staining based flow cytometric analysis (reference value: 5.97%); assay type: functional
# MV4-11 [15] = assay: Induction of apoptosis in human MV4-11 cells assessed as viable cells at 5 uM measured after 4 hrs by Annexin V-FITC/7-AAD staining based flow cytometric analysis (reference value: 89.1%); assay type: functional
# MV4-11 [16] = assay: Induction of apoptosis in human MV4-11 cells assessed as viable cells at 5 uM measured after 4 hrs by Annexin V-FITC/7-AAD staining based flow cytometric analysis (reference value: 90.1%); assay type: functional
# MV4-11 [17] = assay: Induction of apoptosis in human MV4-11 cells assessed as late apoptotic cells at 5 uM measured after 4 hrs by Annexin V-FITC/7-AAD staining based flow cytometric analysis (Rvb =4.21%); assay type: functional
# MV4-11 [18] = assay: Induction of apoptosis in human MV4-11 cells assessed as late apoptotic cells at 5 uM measured after 4 hrs by Annexin V-FITC/7-AAD staining based flow cytometric analysis (reference value: 4.03%); assay type: functional
# MV4-11 [19] = assay: Induction of apoptosis in human MV4-11 cells assessed as necrotic cells at 5 uM measured after 4 hrs by Annexin V-FITC/7-AAD staining based flow cytometric analysis (reference value: 0.92%); assay type: functional
# MV4-11 [20] = assay: Induction of apoptosis in human MV4-11 cells assessed as early apoptotic cells at 5 uM measured after 4 hrs by Annexin V-FITC/7-AAD staining based flow cytometric analysis (reference value: 4.28%); assay type: functional
# MV4-11 [21] = assay: Induction of apoptosis in human MV4-11 cells assessed as necrotic cells at 5 uM measured after 2 hrs by Annexin V-FITC/7-AAD staining based flow cytometric analysis (reference value: 0.92%); assay type: functional
# MV4-11 [22] = assay: Induction of apoptosis in human MV4-11 cells assessed as late apoptotic cells at 5 uM measured after 2 hrs by Annexin V-FITC/7-AAD staining based flow cytometric analysis (reference value: 4.21%); assay type: functional
# MV4-11 [23] = assay: Induction of apoptosis in human MV4-11 cells assessed as early apoptotic cells at 5 uM measured after 2 hrs by Annexin V-FITC/7-AAD staining based flow cytometric analysis (reference value: 4.28%); assay type: functional
# MV4-11 [24] = assay: Induction of apoptosis in human MV4-11 cells assessed as viable cells at 5 uM measured after 2 hrs by Annexin V-FITC/7-AAD staining based flow cytometric analysis (reference value: 90.1%); assay type: functional
# MV4-11 [25] = assay: Induction of apoptosis in human MV4-11 cells assessed as early apoptotic cells at 5 uM measured after 4 hrs by Annexin V-FITC/7-AAD staining based flow cytometric analysis (reference value: 5.97%); assay type: functional
# MV4-11 [26] = assay: Induction of apoptosis in human MV4-11 cells assessed as late apoptotic cells at 2.5 uM measured after 4 hrs by Annexin V-FITC/7-AAD staining based flow cytometric analysis (reference value: 4.03%); assay type: functional
# MV4-11 [27] = assay: Induction of apoptosis in human MV4-11 cells assessed as necrotic cells at 5 uM measured after 1 hrs by Annexin V-FITC/7-AAD staining based flow cytometric analysis (reference value: 0.92%); assay type: functional
# MV4-11 [28] = assay: Induction of apoptosis in human MV4-11 cells assessed as early apoptotic cells at 5 uM measured after 1 hrs by Annexin V-FITC/7-AAD staining based flow cytometric analysis (reference value: 4.28%); assay type: functional
# MV4-11 [29] = assay: Induction of apoptosis in human MV4-11 cells assessed as necrotic cells at 2.5 uM measured after 4 hrs by Annexin V-FITC/7-AAD staining based flow cytometric analysis (reference value: 0.86%); assay type: functional
# MV4-11 [30] = assay: Induction of apoptosis in human MV4-11 cells assessed as necrotic cells at 5 uM measured after 4 hrs by Annexin V-FITC/7-AAD staining based flow cytometric analysis (reference value: 0.86%); assay type: functional
# Sequence of Tyrosine-protein phosphatase non-receptor type 6 (P29350 whole entry, the tested form may be a part): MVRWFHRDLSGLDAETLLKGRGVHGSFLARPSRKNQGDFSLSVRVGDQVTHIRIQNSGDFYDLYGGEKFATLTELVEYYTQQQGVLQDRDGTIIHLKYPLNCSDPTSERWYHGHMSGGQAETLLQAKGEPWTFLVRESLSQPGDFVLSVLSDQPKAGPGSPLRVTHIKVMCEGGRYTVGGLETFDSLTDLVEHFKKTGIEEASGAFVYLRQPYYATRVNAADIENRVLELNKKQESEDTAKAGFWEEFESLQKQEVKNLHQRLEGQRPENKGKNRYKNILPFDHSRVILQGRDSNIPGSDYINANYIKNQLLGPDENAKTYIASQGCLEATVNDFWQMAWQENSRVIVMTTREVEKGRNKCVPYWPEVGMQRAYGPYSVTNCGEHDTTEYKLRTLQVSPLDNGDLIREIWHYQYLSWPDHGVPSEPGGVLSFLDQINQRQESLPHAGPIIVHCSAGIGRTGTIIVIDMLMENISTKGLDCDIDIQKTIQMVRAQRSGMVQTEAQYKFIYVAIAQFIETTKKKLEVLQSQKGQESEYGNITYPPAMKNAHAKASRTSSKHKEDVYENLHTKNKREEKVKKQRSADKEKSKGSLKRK
smiles,measurement,setting,value
NC1CCN(c2nnc(Sc3cccc(Cl)c3Cl)s2)CC1,IC50,[1],5.53 µM
COc1ccc2cc(-c3nnc(N4CCC(C)(N)CC4)s3)ccc2c1,IC50,[1],4.95 µM
CC1(N)CCN(c2nnc(Sc3ccccc3Cl)s2)CC1,IC50,[1],3.29 µM
CC1(N)CCN(c2nnc(-c3ccc4ccccc4c3)s2)CC1,IC50,[1],4.35 µM
CC1(N)CCN(c2nnc(Sc3ccccc3F)s2)CC1,IC50,[1],6.99 µM
CC1(N)CCN(c2nnc(Sc3ccc(Cl)c(Cl)c3)s2)CC1,IC50,[1],4.42 µM
CC1(N)CCN(c2nnc(Sc3ccc4ccccc4c3)s2)CC1,IC50,MDA-MB-468,3.64 µM
same,IC50,[2],1860 nM
same,IC50,[3],> 50 µM
same,IC50,A549,13.8 µM
same,IC50,[4],> 50 µM
same,Activity,BEAS-2B,Toxic
same,IC50,NCI-H358,13.9 µM
same,IC50,MV4-11 [5],3020 nM
same,IC50,[1],0.72 µM
CC1(N)CCN(c2nnc(-c3cccc4ccccc34)s2)CC1,IC50,MDA-MB-468,5.42 µM
same,IC50,[3],> 50 µM
same,IC50,A549,19 µM
same,IC50,[4],> 50 µM
same,IC50,NCI-H358,32.9 µM
same,IC50,MV4-11 [5],3320 nM
same,IC50,[1],4.35 µM
CC1(N)CCN(c2nnc(Sc3ccc(Cl)cc3Cl)s2)CC1,IC50,[1],5.43 µM
CC1(N)CCN(c2cnc(-c3cccc(Cl)c3Cl)c(N)n2)CC1,IC50,MDA-MB-468,31.8 µM
same,IC50,[6],1430 nM
same,Activity,MV4-11 [7],88.2%
same,IC50,[3],> 50 µM
same,Activity,MV4-11 [8],4.24%
same,IC50,A549,> 50 µM
same,Activity,MV4-11 [9],90.4%
same,Activity,MV4-11 [10],4.94%
same,Activity,MV4-11 [11],4.32%
same,Activity,MV4-11 [12],88.1%
same,IC50,NCI-H358,> 50 µM
same,Activity,MV4-11 [13],0.66%
same,Activity,MV4-11 [14],5.95%
same,Activity,MV4-11 [15],89.3%
same,Activity,MV4-11 [16],87.7%
same,Activity,MV4-11 [17],4.58%
same,Activity,MV4-11 [18],4.89%
same,Activity,MV4-11 [19],0.77%
same,Activity,MV4-11 [20],6.98%
same,Activity,MV4-11 [21],0.95%
same,Activity,MV4-11 [22],4.35%
same,IC50,MV4-11 [5],2780 nM
same,Activity,MV4-11 [23],4.73%
same,Activity,MV4-11 [24],90%
same,Activity,MV4-11 [25],5%
same,Activity,MV4-11 [26],5.06%
same,Activity,MV4-11 [27],1.05%
same,Activity,MV4-11 [28],4.27%
same,Activity,MV4-11 [29],0.79%
same,Activity,MV4-11 [30],0.85%
CC1(N)CCN(c2nnc(Sc3cccc4cccnc34)s2)CC1,IC50,[1],4.51 µM
CC1(CN)CCN(c2nnc(Sc3cccc(Cl)c3Cl)s2)CC1,IC50,[1],1.12 µM
CC1(N)CCN(c2nnc(-c3cccc(Cl)c3Cl)s2)CC1,IC50,[1],5.89 µM
NCC1CCN(c2nnc(Sc3cccc(Cl)c3Cl)s2)CC1,IC50,[1],3.82 µM
CC1(N)CCN(c2nnc(Sc3cccc(Cl)c3Cl)s2)CC1,IC50,MDA-MB-468,2.87 µM
same,IC50,[2],3690 nM
same,IC50,[3],> 50 µM
same,IC50,A549,7.21 µM
same,IC50,[4],> 50 µM
same,Activity,BEAS-2B,Toxic
same,IC50,NCI-H358,8.64 µM
same,IC50,MV4-11 [5],2740 nM
same,IC50,[1],0.97 µM

# Reference: ChEMBL document CHEMBL5620403, “Design, synthesis, activity and molecular dynamics studies of 1,3,4-thiadiazole derivatives as selective allosteric inhibitors of SHP2 for the treatment of cancer” (Eur J Med Chem, 2023)
